The values that follow are results of earlier work, collected in patent US6365196B1, “Controlled release solid dosage forms of lithium carbonate” (SmithKline Beecham Corporation, priority 1997, dated 2002).

For `O=C(O)/C=C/C(=O)O` [fumaric acid], the solubility in water is 6 mg per ml.
